# Assay results published in patent publication US20200165291A1, “NEUROACTIVE STEROIDS, COMPOSITIONS, AND USES THEREOF” (Sage Therapeutics, Inc., priority 2014, published 2020).
# Read-outs that look alike come from different tables or passages of the source.
# Legend:
# [1] = biological target: [35S]-TBPS binding, rat brain cortical membranes (GABA receptor complex); assay: [35S]-TBPS binding (steroid inhibition of TBPS binding); settings: in the presence of 5 μM GABA, read-out: 35S-TBPS Radioligand Displacement
# Procedure: [35S]-t-Butylbicyclophosphorothionate (TBPS) binding assays using rat brain cortical membranes in the presence of 5 μM GABA has been described (Gee et al, J. Pharmacol. Exp. Ther. 1987, 241, 346-353; Hawkinson et al, Mol. Pharmacol. 1994, 46, 977-985; Lewin, A. H et al., Mol. Pharmacol. 1989, 35, 189-194).
# Briefly, cortices are rapidly removed following decapitation of carbon dioxide-anesthetized Sprague-Dawley rats (200-250 g). The cortices are homogenized in 10 volumes of ice-cold 0.32 M sucrose using a glass/teflon homogenizer and centrifuged at 1500×g for 10 min at 4° C. The resultant supernatants are centrifuged at 10,000×g for 20 min at 4° C. to obtain the P2 pellets. The P2 pellets are resuspended in 200 mM NaCl/50 mM Na-K phosphate pH 7.4 buffer and centrifuged at 10,000×g for 10 min at 4° C. This washing procedure is repeated twice and the pellets are resuspended in 10 volumes of buffer. Aliquots (100 μL) of the membrane suspensions are incubated with 3 nM [^35S]-TBPS and 5 μL aliquots of test drug dissolved in dimethyl sulfoxide (DMSO) (final 0.5%) in the presence of 5 μM GABA. The incubation is brought to a final volume of 1.0 mL with buffer. Nonspecific binding is determined in the presence of 2 μM unlabeled TBPS and ranged from 15 to 25%. Following a 90 min incubation at room temp, the assays are terminated by filtration through glass fiber filters (Schleicher and Schuell No. 32) using a cell harvester (Brandel) and rinsed three times with ice-cold buffer. Filter bound radioactivity is measured by liquid scintillation spectrometry. Non-linear curve fitting of the overall data for each drug averaged for each concentration is done using Prism (GraphPad). […] The concentration of test compound producing 50% inhibition (IC50) of specific binding and the maximal extent of inhibition (Imax) are determined for the individual experiments with the same model used for the overall data and then the means±SEM.s of the individual experiments are calculated.
# Various compounds are or can be screened to determine their potential as modulators of [^35S]-TBPS binding in vitro. These assays are or can be performed in accordance with the above discussed procedures.
# [2] = biological target: T1, recombinant α1β2γ2 GABAA receptors (Homo sapiens, UniProt P14867+P47870); assay: Patch clamp electrophysiology, QPatch, LTK cells; format: cell-based; settings: 10 μM test article, GABA EC20 = 2 μM, read-out: GABA (α1β2γ2) Qpatch in Ltk, % efficacy at 10 μM
# T1 construct: expressed in transfected cells
# [3] = biological target: T2, recombinant α4β3δ GABAA receptors (Homo sapiens, UniProt P28472+P48169); assay: Patch clamp electrophysiology, manual patch, CHO cells; format: cell-based; settings: 10 μM test article, GABA EC20 = 2 μM, read-out: GABA (α4β3δ) Manual patch in CHO, % efficacy at 10 μM
# T2 construct: expressed in transfected cells; host or cells: CHO cells (transient transfection, Lipofectamine)
# [4] = system: PTZ-treated male CD-1 mice; assay: Acute PTZ (pentylenetetrazol-induced seizure) method in mice; format: in vivo; settings: Mus musculus, latency to tonic seizures, read-out: Anticonvulsive Effect Dose (minimal effective anticonvulsant dose)
# Procedure: The anticonvulsant effect of test compounds were assessed in the pentylenetetazol-induced seizure assay in mice similar to methods described in Giardina & Gasior (2009) Curr Protoc Pharmacol., Chapter 5. Male CD-1 mice were housed in groups of five under controlled conditions (temperature of 22±2° C. and 12:12 light-dark cycle, lights on at 8:00 am) and water and food were available ad libitum. The mice were housed for 1 week prior to behavioral testing, at which time they weighed 25-35 g. Pentylenetetrazol (PTZ, Sigma) was dissolved in sterile 0.9% saline at a concentration of 12 mg/mL concentration for subcutaneous administration. Test compounds were formulated and administered via oral gavage or intraperitoneal injection at a predetermined time-point (typically 30 or 60 minutes) prior to PTZ injection. All solutions were made fresh and were given in a volume of 10 ml/kg body weight.
# Mice were acclimated to the test room for at least 30 min before compound administration. Mice were randomized into at least four test groups (vehicle and at least three doses of the test compound) with 10 mice per group. […] Following the drug pretreatment time the mice were injected s.c. with PTZ (120 mg/kg). Immediately following the PTZ injection, mice were individually placed into observation chambers (25×15×15 cm) and a three-channel timer was started. Each mouse was continuously observed for 30 min and the following behaviors were recorded by observers blinded to the treatments: 1) latency to clonic convulsions that persist for 3 sec and followed by an absence of righting reflex 2) latency to tonic convulsions, characterized by the rigid extension of all four limbs that exceeded a 90 degree angle with the body 3) latency to death 4) number of clonic and tonic convulsions. Data are presented as mean±S.E.M and one-way analysis of variance with Dunnett's or Bonferroni's post-hoc test was used to detect significant differences in latency and number between the vehicle and dose group. p values<0.05 were regarded as statistically significant.
# T1 sequence (P14867 28-456): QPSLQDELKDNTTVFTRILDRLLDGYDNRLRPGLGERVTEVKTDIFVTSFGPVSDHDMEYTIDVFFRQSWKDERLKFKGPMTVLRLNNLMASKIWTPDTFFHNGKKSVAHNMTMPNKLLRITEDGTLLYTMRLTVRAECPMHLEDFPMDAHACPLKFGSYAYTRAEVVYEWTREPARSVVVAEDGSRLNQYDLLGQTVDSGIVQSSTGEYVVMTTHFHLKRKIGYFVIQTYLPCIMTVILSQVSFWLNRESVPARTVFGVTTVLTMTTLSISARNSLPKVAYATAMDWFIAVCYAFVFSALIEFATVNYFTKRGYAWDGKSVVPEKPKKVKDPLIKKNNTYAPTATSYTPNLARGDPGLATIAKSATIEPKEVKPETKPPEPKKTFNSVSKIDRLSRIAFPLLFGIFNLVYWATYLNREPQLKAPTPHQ
# T1 sequence (P47870 25-512 limits assumed): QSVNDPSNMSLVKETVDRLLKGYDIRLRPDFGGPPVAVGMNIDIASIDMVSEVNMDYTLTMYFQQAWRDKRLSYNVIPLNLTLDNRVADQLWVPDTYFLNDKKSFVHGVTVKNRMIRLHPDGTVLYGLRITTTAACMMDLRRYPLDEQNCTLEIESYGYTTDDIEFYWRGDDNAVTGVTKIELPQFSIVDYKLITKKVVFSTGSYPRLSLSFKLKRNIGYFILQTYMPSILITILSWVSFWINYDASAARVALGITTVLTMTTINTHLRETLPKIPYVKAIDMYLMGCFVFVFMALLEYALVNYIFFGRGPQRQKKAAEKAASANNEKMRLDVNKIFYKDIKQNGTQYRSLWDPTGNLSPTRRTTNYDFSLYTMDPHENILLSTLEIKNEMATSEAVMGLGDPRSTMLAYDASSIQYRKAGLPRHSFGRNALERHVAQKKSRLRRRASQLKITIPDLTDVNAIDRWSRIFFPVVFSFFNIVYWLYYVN
# T1 sequence (P18507 40-475 partner): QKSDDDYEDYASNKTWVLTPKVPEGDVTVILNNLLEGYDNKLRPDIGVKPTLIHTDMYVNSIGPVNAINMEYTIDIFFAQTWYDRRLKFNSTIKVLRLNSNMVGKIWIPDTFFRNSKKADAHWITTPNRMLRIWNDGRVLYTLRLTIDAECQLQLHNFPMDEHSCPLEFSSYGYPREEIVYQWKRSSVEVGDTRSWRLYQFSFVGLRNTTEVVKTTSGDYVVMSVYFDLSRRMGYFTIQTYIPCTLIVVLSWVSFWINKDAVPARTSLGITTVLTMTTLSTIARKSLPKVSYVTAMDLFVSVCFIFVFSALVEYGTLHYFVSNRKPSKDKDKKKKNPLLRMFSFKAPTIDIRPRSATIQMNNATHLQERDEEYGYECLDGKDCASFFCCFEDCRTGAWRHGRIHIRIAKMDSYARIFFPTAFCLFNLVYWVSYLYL
# T2 sequence (P48169 36-554): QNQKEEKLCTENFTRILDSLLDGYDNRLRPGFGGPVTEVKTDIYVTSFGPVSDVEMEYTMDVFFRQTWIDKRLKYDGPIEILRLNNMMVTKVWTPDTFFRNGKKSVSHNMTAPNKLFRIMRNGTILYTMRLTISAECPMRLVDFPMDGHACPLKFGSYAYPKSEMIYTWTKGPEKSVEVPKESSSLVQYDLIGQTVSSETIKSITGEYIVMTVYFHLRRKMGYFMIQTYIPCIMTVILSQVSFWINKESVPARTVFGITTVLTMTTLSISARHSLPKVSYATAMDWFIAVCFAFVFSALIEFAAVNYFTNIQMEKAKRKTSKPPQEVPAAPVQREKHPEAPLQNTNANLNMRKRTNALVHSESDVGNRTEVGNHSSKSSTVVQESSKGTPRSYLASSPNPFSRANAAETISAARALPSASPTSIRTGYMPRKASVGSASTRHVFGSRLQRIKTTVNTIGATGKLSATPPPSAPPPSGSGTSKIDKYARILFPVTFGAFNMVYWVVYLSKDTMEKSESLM
# T2 sequence (P28472 26-473): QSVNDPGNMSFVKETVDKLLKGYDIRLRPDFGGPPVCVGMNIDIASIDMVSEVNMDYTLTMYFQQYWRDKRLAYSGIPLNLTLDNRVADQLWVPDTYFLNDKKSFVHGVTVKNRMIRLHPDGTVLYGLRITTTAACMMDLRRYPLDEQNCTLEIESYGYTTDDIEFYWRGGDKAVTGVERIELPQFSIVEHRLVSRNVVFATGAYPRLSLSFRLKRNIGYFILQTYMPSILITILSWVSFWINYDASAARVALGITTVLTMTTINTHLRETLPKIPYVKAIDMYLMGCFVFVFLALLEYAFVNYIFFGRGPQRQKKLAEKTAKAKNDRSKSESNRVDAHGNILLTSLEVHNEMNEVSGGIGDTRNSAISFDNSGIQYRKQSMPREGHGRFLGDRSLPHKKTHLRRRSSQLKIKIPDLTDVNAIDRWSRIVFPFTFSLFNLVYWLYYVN
# T2 sequence (O14764 17-452 partner limits assumed): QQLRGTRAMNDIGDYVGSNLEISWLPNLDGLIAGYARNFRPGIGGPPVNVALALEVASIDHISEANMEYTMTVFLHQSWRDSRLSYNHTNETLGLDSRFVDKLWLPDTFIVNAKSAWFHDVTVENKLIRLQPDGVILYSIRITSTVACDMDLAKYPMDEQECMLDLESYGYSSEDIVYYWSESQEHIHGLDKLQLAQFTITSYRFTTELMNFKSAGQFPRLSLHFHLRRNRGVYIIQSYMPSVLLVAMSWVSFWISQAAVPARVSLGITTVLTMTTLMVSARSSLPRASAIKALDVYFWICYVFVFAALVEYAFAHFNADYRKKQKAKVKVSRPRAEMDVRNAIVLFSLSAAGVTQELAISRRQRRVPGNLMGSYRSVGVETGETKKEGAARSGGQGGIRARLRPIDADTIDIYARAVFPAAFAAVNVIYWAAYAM
SMILES,IC50 [1] [nM],Emax at 10 µM [2] [%],Emax at 10 µM [3] [%],minimal effective dose ([4]; PO (oral administration)) [mg/kg],minimal effective dose ([4]; IP (intraperitoneal injection)) [mg/kg],Emax at 10 µM ([2]; in cremophor) [%],Emax at 10 µM ([3]; in cremophor) [%]
C[C@@]1(O)CC[C@H]2[C@H](CC[C@@H]3[C@@H]2CC[C@]2(C)[C@@H](C(=O)Cn4cnnn4)CC[C@@H]32)C1 [SA-2],50 to 100,> 500,100 to 500,1 to 3,–,–,–
Cc1cnnn1CC(=O)[C@H]1CC[C@H]2[C@@H]3CC[C@@H]4C[C@](C)(O)CC[C@@H]4[C@H]3CC[C@]12C [SA-4],–,> 500,> 500,–,–,–,–
Cc1nnnn1CC(=O)[C@H]1CC[C@H]2[C@@H]3CC[C@@H]4C[C@](C)(O)CC[C@@H]4[C@H]3CC[C@]12C [SA-6],1 to 50,100 to 500,> 500,1 to 3,–,–,–
C[C@@]1(O)CC[C@H]2[C@H](CC[C@@H]3[C@@H]2CC[C@]2(C)[C@@H](C(=O)Cn4ccnn4)CC[C@@H]32)C1 [SA-9],1 to 50,100 to 500,> 500,–,1 to 3,–,–
C[C@@]1(O)CC[C@H]2[C@H](CC[C@@H]3[C@@H]2CC[C@]2(C)[C@@H](C(=O)Cn4ncc(C(N)=O)n4)CC[C@@H]32)C1 [SA-13],–,–,–,–,–,100 to 500,> 500
C[C@@]1(O)CC[C@H]2[C@@H](CC[C@@H]3[C@@H]2CC[C@]2(C)[C@@H](C(=O)Cn4cncn4)CC[C@@H]32)C1 [SB-1],100 to 500,–,> 500,–,–,–,–
C[C@@]1(O)CC[C@H]2[C@@H](CC[C@@H]3[C@@H]2CC[C@]2(C)[C@@H](C(=O)Cn4cnnn4)CC[C@@H]32)C1 [SB-2],100 to 500,100 to 500,100 to 500,–,> 3,–,–
Cc1nnnn1CC(=O)[C@H]1CC[C@H]2[C@@H]3CC[C@H]4C[C@](C)(O)CC[C@@H]4[C@H]3CC[C@]12C [SB-4],–,100 to 500,> 500,–,–,–,–
C[C@@]1(O)CC[C@H]2[C@@H](CC[C@@H]3[C@@H]2CC[C@]2(C)[C@@H](C(=O)Cn4ccnn4)CC[C@@H]32)C1 [SB-6],50 to 100,100 to 500,100 to 500,–,1 to 3,–,–
Cc1nnnn1CC(=O)[C@H]1CC[C@H]2[C@@H]3CC[C@@H]4C[C@@](O)(CF)CC[C@@H]4[C@H]3CC[C@]12C [SF-2],–,100 to 500,> 500,–,–,–,–
C[C@]12CC[C@H]3[C@@H](CC[C@@H]4C[C@@](O)(C(F)F)CC[C@@H]43)[C@@H]1CC[C@@H]2C(=O)Cn1cnnn1 [SG-1],–,100 to 500,100 to 500,–,–,–,–
C[C@]12CC[C@H]3[C@@H](CC[C@@H]4C[C@@](O)(C(F)F)CC[C@@H]43)[C@@H]1CC[C@@H]2C(=O)Cn1ccnn1 [SG-5],100 to 500,> 500,> 500,–,–,–,–
COC[C@@]1(O)CC[C@H]2[C@@H](CC[C@@H]3[C@@H]2CC[C@]2(C)[C@@H](C(=O)Cn4cnnn4)CC[C@@H]32)C1 [SI-1],100 to 500,100 to 500,> 500,1 to 3,–,–,–
COC[C@@]1(O)CC[C@H]2[C@@H](CC[C@@H]3[C@@H]2CC[C@]2(C)[C@@H](C(=O)Cn4nnnc4C)CC[C@@H]32)C1 [SI-3],–,100 to 500,> 500,≤ 1,–,–,–
C[C@@H]1C[C@H]2[C@@H](CC[C@@H]3[C@@H]2CC[C@]2(C)[C@@H](C(=O)Cn4nccn4)CC[C@@H]32)C[C@]1(C)O [SN-2],1 to 50,100 to 500,100 to 500,–,–,–,–
CC[C@@]1(O)CC[C@H]2[C@@H](CC[C@@H]3[C@@H]2CC[C@]2(C)[C@@H](C(=O)Cn4nnnc4C)CC[C@@H]32)C1 [SP-4],> 500,10 to 100,–,–,–,–,–
CO[C@H]1C[C@H]2[C@@H](CC[C@@H]3[C@@H]2CC[C@]2(C)[C@@H](C(=O)Cn4ccnn4)CC[C@@H]32)C[C@]1(C)O [SU-1],100 to 500,100 to 500,–,–,–,–,–
CO[C@H]1C[C@H]2[C@@H](CC[C@@H]3[C@@H]2CC[C@]2(C)[C@@H](C(=O)Cn4nccn4)CC[C@@H]32)C[C@]1(C)O [SU-2],50 to 100,100 to 500,> 500,–,–,–,–
C[C@@]1(O)CC[C@@H]2[C@H]3CC[C@]4(C)[C@@H](C(=O)Cn5cnnn5)CC[C@H]4[C@@H]3C[C@@H](F)[C@H]2C1 [SV-4],–,100 to 500,100 to 500,1 to 3,–,–,–
Cc1nnnn1CC(=O)[C@H]1CC[C@H]2[C@@H]3C[C@@H](F)[C@H]4C[C@](C)(O)CC[C@@H]4[C@H]3CC[C@]12C [SV-6],–,100 to 500,100 to 500,–,–,–,–
CO[C@@H]1C[C@@H]2[C@H](CC[C@]3(C)[C@@H](C(=O)Cn4ccnn4)CC[C@@H]23)[C@H]2CC[C@@](C)(O)C[C@@H]21 [SW-1],> 500,100 to 500,–,–,–,–,–
CCO[C@H]1C[C@H]2[C@@H](CC[C@@H]3[C@@H]2CC[C@]2(C)[C@@H](C(=O)Cn4ccnn4)CC[C@@H]32)C[C@]1(C)O [SY-1],100 to 500,100 to 500,–,–,–,–,–
CCO[C@H]1C[C@H]2[C@@H](CC[C@@H]3[C@@H]2CC[C@]2(C)[C@@H](C(=O)Cn4nccn4)CC[C@@H]32)C[C@]1(C)O [SY-2],100 to 500,100 to 500,> 500,–,–,–,–
C[C@H]1C[C@H]2[C@@H](CC[C@@H]3[C@@H]2CC[C@]2(C)[C@@H](C(=O)Cn4ccnn4)CC[C@@H]32)C[C@]1(C)O [SZ-1],50 to 100,100 to 500,–,–,–,–,–
C[C@H]1C[C@H]2[C@@H](CC[C@@H]3[C@@H]2CC[C@]2(C)[C@@H](C(=O)Cn4nccn4)CC[C@@H]32)C[C@]1(C)O [SZ-2],50 to 100,100 to 500,100 to 500,–,–,–,–
